Source: ChEMBL document CHEMBL1165947, “Synthesis and antitumor activity of 2,5-bis(3'-indolyl)-furans and 3,5-bis(3'-indolyl)-isoxazoles, nortopsentin analogues” (Bioorg Med Chem, 2010)

Tested on: P388
Test: Cytotoxicity against mouse P388 cells
Format: functional, cell-based

Row | Structure (SMILES) | IC50
1 | Cn1c(-c2cn(C)c3ccccc23)cnc1-c1cn(C)c2cc(Br)ccc12 [N-METHYL NORTOPSENTIN B] | 800 nM
2 | Brc1ccc2c(-c3c[nH]c(-c4c[nH]c5ccccc45)n3)c[nH]c2c1 [NORTOPSENTIN C] | 4500 nM
